Legend:
[1] = biological target: HLA class I molecule B*3501 (Homo sapiens, UniProt P01889, A329T/A93T/A95T/C349S/D201E/D98Y/E176V/E187L/E204Q/E69T/I218V/K202T/L119I/Q94N/R155S/R180L/S121R/S35A/S48A/T118I/V127L/V306I/V36M/Y140S/Y91F); assay: REVEAL HLA-peptide binding assay, B*3501; conditions: assembly of peptide-HLA complex by ELISA with conformation-dependent anti-HLA antibody, relative to positive control peptide for that allele, comparable within an allele only
Procedure: (§1) The REVEAL HLA-peptide binding assay (ProImmune Ltd., Oxford, UK) was used to quantify peptide-HLA binding. For each allele-peptide combination that was tested, assembly of peptide-HLA complexes was quantified by ELISA with a conformation-dependent anti-HLA antibody. Samples of assembling peptide-HLA complexes were taken at a defined time point and snap-frozen in liquid nitrogen prior to analysis. The assembly for each peptide-HLA complex was then compared against a positive control peptide for that allele as the percentage of assembled peptide relative to that control. We selected four HLA class I alleles and 50 HTLV-1 peptides for each allele. The allele choice was based on allele frequency in the Kagoshima database and included 2 A alleles and 2 B alleles as well as alleles for which we knew that the epitope prediction tended to be poor. The 50 HTLV-1 nonamer peptides for each allele were selected to represent a range of predicted binding affinities, from weak to strong binding peptides. They originated from 4 HTLV-1 reference strain proteins: Tax, HBZ, Gag and Polymerase.
(§2) Note the binding score is with respect to a reference good binding peptide for each allele and therefore scores can be compared within an allele but not between alleles.

[2] = biological target: T1, HLA class I molecule B*0702 (Homo sapiens, UniProt P01889); assay: REVEAL HLA-peptide binding assay, B*0702; parameters: concentration or dose not given beside the values; conditions: assembly of peptide-HLA complex by ELISA with conformation-dependent anti-HLA antibody, relative to positive control peptide for that allele, comparable within an allele only
T1 construct: purchased ProImmune Ltd., Oxford, UK
Procedure: as §1, §2

[3] = biological target: T2, HLA class I molecule A*0201 (Homo sapiens, UniProt P04439, D140Y/D185E/D98H/E176V/E277Q/G131W/G231S/I119V/I121R/I166T/I218V/L300P/L318F/N151K/N90K/P208A/P217A/Q86G/Q94H/R138H/R169H/T345S); format: binding; conditions: REVEAL assay, assembly of peptide-HLA complex by ELISA with conformation-dependent anti-HLA antibody, relative to positive control peptide for that allele, comparable within an allele only
T2 construct: purchased ProImmune Ltd., Oxford, UK

[4] = biological target: T3, HLA class I molecule A*2402 (Homo sapiens, UniProt P04439, D101N/D140Y/D185E/E176V/E190D/F33S/G103R/G107R/I119L/I121M/I306V/K335N/L105A/L180Q/L300P/N151K/N90K/Q86E/Q94H/R106L/R138H/R89G/T104I/T345S/V100E/W191G/Y123F); format: binding; conditions: REVEAL assay, assembly of peptide-HLA complex by ELISA with conformation-dependent anti-HLA antibody, relative to positive control peptide for that allele, comparable within an allele only
T3 construct: purchased ProImmune Ltd., Oxford, UK

[5] = test system: autologous B-LCL loaded with HBZ26–34 peptide; assay: Chromium release assay, peptide-loaded B-LCL; format: cell-based, human; conditions: 1 µM HBZ 26–34 peptide, 4 h, ^51Cr release; data not shown
Procedure: PBMC from HLA A*0201^+ and HLA A*0201^− HTLV-1 infected individuals were depleted of CD8^+ cells, then enriched for CD25^+ cells using MACS beads (Miltenyi Biotech, Germany), according to manufacturer's instructions. CD25^+ cells were cultured for 16h to allow for viral antigen expression and presentation, then labelled with ^51Cr by incubating for 1h in the presence of 50–100 µCi Na2CrO4 (MP Biomedicals, USA). Labelled cells were washed extensively and placed in culture in triplicate (40,000 cells/well) in the presence of defined ratios of HBZ-1, a CTL clone which recognises HBZ 26–34 in the context of HLA A*0201 [37], alone or in the presence of 5% Triton x-100 (Sigma Aldrich). As a control, ^51Cr labelled B-LCL (autologous to the CTL clone) were cultured at the same ratios, with and without 1 µM HBZ 26–34 peptide. […] Total specific lysis was calculated using the following formula: [chromium release (test well)−chromium release (no CTL control)]/ [chromium release (Triton−100% lysis)−chromium release (no CTL control)]*100, expressed as a percentage specific lysis of total cells. […] Percentage infected cells lysed was calculated using the following formula: [Percentage total cells lysed]/[fraction of CD4^+CD25^+ cells that are infected i.e. provirus positive].

Row | Sequence | Score (experimentally measured binding affinity, % binding compared to control peptide) [1] | Score (experimentally measured binding affinity, % binding compared to control peptide) [2] | Score (experimentally measured binding affinity, % binding compared to control peptide) [3] | Score (experimentally measured binding affinity, % binding compared to control peptide) [4] | Lysis of peptide-loaded autologous B-LCL by the HBZ-specific CD8^+ T cell clone [5]
1 | AAHHWLNFL [HTLV-1 nonamer peptide] | 0% | 27.59% | 5.86% | – | –
2 | AASGLFRCL [HTLV-1 nonamer peptide] | 7.33% | 107.28% | – | – | –
3 | ASGLFRCLP [HTLV-1 nonamer peptide] | 0% | 2% | 2.99% | 4.14% | –
4 | AVLDGLLSL [HTLV-1 nonamer peptide] | 0% | 18.76% | 92.9% | 1.41% | –
5 | DPISRLNAL [HTLV-1 nonamer peptide] | 67.38% | 115.84% | – | – | –
6 | FPGFGQSLL [HTLV-1 nonamer peptide] | 55.31% | 102.99% | – | – | –
7 | FVERLNIAL [HTLV-1 nonamer peptide] | 13.69% | 104.14% | 6.6% | – | –
8 | GFGQSLLFG [HTLV-1 nonamer peptide] | 0% | 0% | 0.29% | 1.06% | –
9 | GLLSLEEEL [HTLV-1 nonamer peptide, HBZ26–34, recognised in the context of HLA-A*0201] | – | – | 63.68% | – | could be lysed by the CD8^+ T cell clone
10 | HPGQLGAFL [HTLV-1 nonamer peptide] | 34.24% | 60.82% | – | – | –
11 | IQYSSFHSL [HTLV-1 nonamer peptide] | – | 2.94% | 93.93% | 87.52% | –
12 | KALMPVFTL [HTLV-1 nonamer peptide] | 11.5% | 40.22% | 79.88% | 8.05% | –
13 | KISLTTGAL [HTLV-1 nonamer peptide] | – | 71.26% | 3.54% | – | –
14 | LAAHHWLNF [HTLV-1 nonamer peptide] | 75.12% | 4.59% | – | 35.91% | –
15 | LPFHSTLTT [HTLV-1 nonamer peptide] | 102.24% | 97.77% | – | – | –
16 | LPVSCPEDL [HTLV-1 nonamer peptide] | 74.86% | 6.44% | – | – | –
17 | LVLQSSSFI [HTLV-1 nonamer peptide] | – | 1.65% | 41.33% | – | –
18 | MPVFTLSPV [HTLV-1 nonamer peptide from Pol] | 114.77% | 142.96% | – | – | –
19 | QAMRKYSPF [HTLV-1 nonamer peptide] | 69.18% | 140.22% | – | 56.78% | –
20 | QPARAPVTL [HTLV-1 nonamer peptide] | 55.56% | 135.43% | – | – | –
21 | RICPINYSL [HTLV-1 nonamer peptide] | – | 110.59% | 71.46% | 77.87% | –
22 | RPPRGLAAH [HTLV-1 nonamer peptide] | 34.86% | 143.59% | – | – | –
23 | RVIGSALQF [HTLV-1 nonamer peptide] | 42.94% | 87.63% | – | 65.17% | –
24 | RVNEILHIL [HTLV-1 nonamer peptide] | 8.02% | 89.83% | 49.35% | – | –
25 | SAQWIPWRL [HTLV-1 nonamer peptide] | 14.94% | 0% | 24.03% | 27.07% | –
26 | SLVQLRQAL [HTLV-1 nonamer peptide] | 0% | 119.22% | 6.84% | – | –
27 | TFLKTAAPL [HTLV-1 nonamer peptide] | – | 28.15% | – | 86.12% | –
28 | VPIRSRWAL [HTLV-1 nonamer peptide] | – | 125.64% | – | – | –
29 | VPYKRIEEL [HTLV-1 nonamer peptide] | – | 133.31% | – | – | –
30 | YPGRVNEIL [HTLV-1 nonamer peptide] | 109.69% | 158.86% | – | – | –

Source: paper PMC2944806, “HLA Class I Binding of HBZ Determines Outcome in HTLV-1 Infection” (PLoS Pathogens, 2010)
